Measurements: article PMC13197777, “Distinct 2-phenylimidazo[1,2-a]pyridine derivatives that inhibit breast cancer cell proliferation identified as AHR ligands” (iScience, 2026)
In brackets after ≈: the same amount, converted by molar mass. Like-named read-outs stand apart in the source and are kept apart here.

How the values were obtained:
[1] = tested on: ERα in MCF-7 cells; test: Immunoblot of ERα in MCF-7 cells; type: cell-based, human; conditions: MCF-7, 48 h, increasing concentrations up to 1 μM
Protocol: To determine the relative expression of proteins by Western blotting, cells were first washed with ice-cold phosphate buffered saline (PBS). Subsequently, they were lysed in ice-cold NP40 lysis buffer (1%NP-40, 50 mM Tris-HCl, pH 8.0, 150 mM NaCl, 5 mM Ethylenediaminetetraacetic acid [EDTA], 1 mM PMSF) on ice. DNA was degraded by sonification (five pulses at 50 amplitudes). Protein concentration was determined, and equal amounts of protein were separated on a 9% SDS-PAGE gel. The proteins were transferred onto nitrocellulose membrane by a standard Western blotting protocol and the membranes were incubated with the following antibodies: ERα (Santa Cruz Biotechnology, sc-8002, RRID: AB_627558) and PCNA (Santa Cruz Biotechnology, sc-56, RRID: AB_628110), followed by incubation with HRP labeled Goat anti-mouse Immunoglobulins (DAKO, P0447, RRID: AB_2617137).

[2] = tested on: ERα target genes (PGR, TFF1, PDZK1, GREB1); test: Quantitative RT-PCR of ER target genes in MCF-7 cells; conditions: MCF-7, 1 μM, absence and presence of 10 nM E2, 24 h
[3] = tested on: PDxO#28; test: Organoid viability, CellTiter-Glo 3D; type: cell-based, human; conditions: PDxO#28 in 3D Matrigel, 7 days, increasing doses; same results in PDO#268 and PDO#480
Source text: Organoids were generated from patients’ samples and from patient-derived xenograft (PDX) tumors, as previously described.[25] PDX were derived from BCRO#28, an ER^+ breast cancer sample collected from a treatment naive patient. PDO#268 was derived from BCRO#268, an ER^+ breast cancer sample collected from treatment naive patient. PDO#480 was derived from BCRO#480, an ER^+ breast cancer sample collected from a patient subjected to chemotherapy in neo-adjuvant setting. Briefly, tumors freshly explanted from mice were mechanically shredded, digested with collagenase (Merck) and filtered through a 100 μm strainer. Digested material (isolated cells and small cell clusters) was centrifuged and embedded in 3D-matrix drops (reduced growth factor Basement Membrane Extract, BME, R&D systems), then overlaid with breast cancer organoid medium.[25] For 3D survival curves under treatment, organoids were embedded in BME drops and, after 24 - 48 h, drugs were added. Fresh drug-containing medium was replaced on day 4. On day 7 of treatment, CellTiter-Glo 3D Cell Viability Assay (Promega) was added and luminescent signal from viable organoids was recorded on Infinite M1000 Pro instrument (Tecan).

[4] = Compound stability in aqueous environment; type: physicochemical; conditions: 12.5 μM, HEPES pH 7.4/acetonitrile 3:2, 1% DMSO, 21 °C, 5 days
Protocol: The stability of the compounds was evaluated at a concentration of 12.5 μM in a 3:2 mixture of buffer (HEPES, 0.1 M, pH 7.4) and acetonitrile, with 1% DMSO. Acetonitrile was added because the concentration of 12.5 μM exceeded the thermodynamic solubility of the compounds in the buffer. This addition thereby prevented the formation of precipitates and a gradual decrease in compound concentration during the measurement. The resulting solution was stirred at 21 °C in a sealed vial (crimp neck vials, 5 mL, clear (Cat. No. 548-0611A) in combination with natural rubber septa (548-0565A) and aluminum crimp caps (548-3278A), VWR International) for 5 days. […] The AUC measured was subsequently plotted as a function of the incubation time (Figure S3). No signs of decomposition could be observed over the given time.

[5] = Thermodynamic solubility, shake-flask method; type: physicochemical; conditions: HEPES buffer 0.1 M pH 7.4, 21 °C
Protocol: Thermodynamic solubility was determined using the classical shake-flask method. The solid compound (4 mg) was suspended in 1 mL HEPES buffer (0.1 M, pH 7.4) and constantly stirred at 21 °C for 24 h. […] The injection volume for all analyses was 50 μL and the flow rate was kept at 1 mL/min during the analysis. A mobile phase gradient method was applied as a method with 5% solvent B to 99% solvent B in 5 min, followed by 3 min of elution at 99% solvent B.
Calibration curve was generated from a serial dilution of the respective analyte in DMSO at 2.5, 1.25, 0.625, 0.313, 0.156, 0.078, 0.039 mM starting from a 10 mM DMSO stock solution. Subsequently, 2 μL of each dilution was added to 198 μL of a buffer (HEPES, 0.1 M, pH 7.4)/acetonitrile mixture in a 3:2 ratio yielding final dilutions of 25, 12.5, 6.25, 3.125, 1.562, 0.781, 0.391 μM. These were then subjected to HPLC analysis as described above.
Using the results from the linear regression of the internal calibration measurement points (Figure S5) and the mean AUC values from the saturated aqueous solutions, the concentration C of the analytes in the saturated aqueous solution, expressed in μM, were calculated using Equation 2:(Equation 1) AUC=Slope·C+YIntercept (Equation 2) C=AUC−YIntercept/Slope

[6] = tested on: CTC-ITB-01 cells; test: cells; type: cell-based; conditions: for CC50: Homo sapiens, read-out: LC50
Protocol: LC50 values were measured using the CyQUANT NF Cell Proliferation Assay Kit (Thermo Fisher). CTC-ITB-01 cells were plated at a density of 2x10^3 cells/well in 96-well plates and treated the following day with serial dilutions of the test compounds. After incubation for the indicated time, cells were stained with CyQUANT dye according to the manufacturer’s protocol and incubated at 37°C for 30 min. Fluorescence was measured using a Tecan Infinite M Nano+ (excitation: 485 nm; emission: 530 nm). For the calculation of the LC50 the fluorescence was plotted against the Log10 of the inhibitor concentration in nM as x values and the LC50 values were calculated with 95% confidence intervals (n = 4).

[7] = tested on: CTC-ITB-01 cells; test: Clonogenic assay of CTC-ITB-01 cells; type: cell-based, human; conditions: CTC-ITB-01, two weeks of treatment
Protocol: (§1) Cells were seeded at a density of 1–2×10^3 cells/well in a 6-well plate and treated with increasing concentrations of the X compounds for 14–21 days. Medium and compounds were renewed every 7 days. The experiments were terminated by fixing the cells with methanol and the colonies formed were visualized after staining with 0.5% crystal violet (w/v) in 20% methanol (v/v). Plates were photographed and the area covered by the colonies was calculated using the ColonyArea Plugin for Fiji (RRID:SCR_003070).[20]

[8] = tested on: MCF-7 luc D538G and MCF-7 luc Y537S; test: Clonogenic assay, cells expressing the two mutant ERs (range over both); type: cell-based; conditions: Homo sapiens, MCF7, read-out: IC50 clonal expansion in cells expressing the two mutant ERs
Protocol: as §1

Compound	ERα destabilization (immunoblot) [1]	expression of ERα target genes (RT-PCR) [2]	organoid viability (survival) [3]	stability in aqueous environment [4]	solubility thermodynamic at 24 h [5] [µM]	solubility thermodynamic at 24 h ([5]; HEPES buffer, 21 °C, pH 7.4, aqueous buffer, thermodynamic from solid) [µM]	LC50 fold lower compared to fulvestrant ([6]; CTC-ITB-01, 48 h and 120 h) [fold]	CC50 ([6]; 48 h) [nM]	CC50 ([6]; 120 h) [nM]	inhibition of clonal expansion compared to fulvestrant [7]	IC50 [8] [nM]
Cc1cc(Cl)c2nc(-c3ccccc3)cn2c1 [X19728]	no significant ERα destabilization	not significant in the presence of E2	–	–	–	–	–	–	–	–	–
Cc1cc(Cl)c2nc(-c3ccc(F)cc3)cn2c1 [X19724]	most proficient in destabilizing ERα	–	–	–	–	–	–	–	–	–	–
Fc1ccc(-c2cn3cc(C(F)(F)F)cc(Cl)c3n2)cc1 [X15695]	most proficient in destabilizing ERα	–	significantly reduced survival in a dose-dependent manner	no obvious decomposition detected	3 (≈ 0.944 µg/mL)	2.99 (≈ 0.941 µg/mL)	20	400	300	about three orders of magnitude more potent	7.82 to 11.6
